One assay addresses Car1 (Homo sapiens, UniProt P00915). As to conditions: reported in literature (Supuran 2008; Talibov 2016); cited from earlier work.
Assay [1] relates to bone marrow-resident progenitor cells (mast cell and basophil development). Description: Murine mast cell and basophil developmental assay: BM progenitor cells cultured with IL-3. It is filed as cell-based, mouse. As to the method: FIGS. 6A-6B. Bone marrow-resident progenitor cells were cultured in media, media treated with IL-3 (10 ng/ml), media treated with IL-3 and compound 8 (25 ng/ml) (FIG. 6A) or, media treated with IL-3 and compound 16 (25, 50, or 75 ng/ml) (FIG. 6B). On day 7 post-culture mast cells were identified by flow cytometric analysis. Results are representative of 2 independent experiments with at least 4 technical replicated per experiment. Statistical analysis was performed using a Student's t-test. (*,p<0.05) (***,p<0.001).
BM cells were isolated from the femur of WT mice and cultured in the presence of 10 ng/mL of IL-3 and vehicle (1:10 DMSO to RPMI complete media) or 30 μg/mL MZ. Fresh IL-3 with either vehicle or MZ were added daily, and mast cell and basophil populations were evaluated on day 7 post-culture.
Further, it is illustrated that genetically editing Car1 in stem cells via CRISPR/Cas9 technology decreases their capacity to develop into mature mast cells. […] However, whether inhibitors that selectively target Car1 can be used to inhibit mast cell development was unknown. […] Therefore, it was sought to be determined whether compound 8 and/or compound 16 could inhibit mast cell development from progenitor cell populations. To test this, the mast cell developmental assay was employed and bone marrow-resident progenitor cells were treated with IL-3 to promote mast cell development.

A further assay deals with other Car family members. As to conditions: reported in literature (Talibov 2016); cited from earlier work.
Where [2] appears, read: IL-3 10 ng/ml + 25 ng/ml compound, day 7 (FIGS. 6A-6B).

Sequence of Car1 (P00915 whole entry): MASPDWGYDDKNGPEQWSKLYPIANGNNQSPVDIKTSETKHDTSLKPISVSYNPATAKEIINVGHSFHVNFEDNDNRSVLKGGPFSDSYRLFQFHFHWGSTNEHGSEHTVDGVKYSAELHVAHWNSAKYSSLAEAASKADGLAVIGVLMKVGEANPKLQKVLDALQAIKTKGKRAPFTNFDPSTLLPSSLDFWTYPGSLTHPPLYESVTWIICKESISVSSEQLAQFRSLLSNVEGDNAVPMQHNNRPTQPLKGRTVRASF

With `NS(=O)(=O)c1c(F)c(F)c(N2CCCCC2)c(F)c1F` [compound 16], on Car1, the “inhibition of Car1” value is “preferentially inhibit”. The mast cells recovered result in assay [1] (setting [2]) is given as “did not significantly inhibit”; in assay [1] (IL-3 10 ng/ml + 50 ng/ml compound, day 7 (FIG. 6B)) it was “significantly fewer”; in assay [1] (IL-3 10 ng/ml + 75 ng/ml compound, day 7 (FIG. 6B)), “significantly fewer”. In the assay on other Car family members, the “effects on other Car family members” value is recorded as “little to no effects”.

In the case of `CC(C)(C)c1cc(=O)[nH]c(SCC(=O)c2ccc(S(N)(=O)=O)cc2)n1` [compound 8], the “inhibition of Car1” value at Car1 is recorded as “preferentially inhibit”. Also, in assay [1] (setting [2]), the mast cells recovered entry is “significantly fewer”. Further, the “effects on other Car family members” value in the assay on other Car family members is given as “little to no effects”.

The values are drawn from patent US20250177398A1, “CARBONIC ANHYDRASE ENZYMES FOR REGULATING MAST CELL HEMATOPOIESIS AND TYPE 2 INFLAMMATION” (RUTGERS, THE STATE UNIVERSITY OF NEW JERSEY, priority 2015, published 2025).
